Experimental data published in US12611409B2, “Combination therapy using a chemokine receptor 2 (CCR2) antagonist and a PD-1/PD-L1 inhibitor” (CHEMOCENTRYX, INC., priority 2017, dated 2026).

Tests used:
[1] = Compound 1 plasma levels in the CT26 study; type: in vivo, Balb/c mice; details: oral gavage 30 mg/kg daily; day 3 and day 23 of dosing
Method: Six days after subcutaneous CT26 implantation into the flanks of 9 wk female Balb/c mice (2.5×10^5/mouse), the recipients were randomized based on tumor size and treatment was begun. Mice received anti-PD-1 (RPM1-14 from BioXcell, Inc., catalog number BE0146) by IP injection on days 7, 10, 17 and 21 (200 μg/mouse), and received CCR2 antagonist Compound 1 (30 or 60 mg/kg) or vehicle by oral gavage every 24 hours starting day 7.

[2] = tested on: M-MDSCs and CD8 T cells in the CT26 tumor microenvironment; experiment: Quantitation of tumor-infiltrating cells per gram of CT26 tumor (flow cytometry); type: in vivo, Balb/c mice
Text: CT26 is a Balb/c-derived colon adenocarcinoma that generates tumors when injected subcutaneously into Balb/c mice. Single cells were isolated from established subcutaneous CT26 tumors (28 days after injection) by mincing, digesting the tissue briefly with collagenase-D, and passing the slurry through 100 μm sieves. Cells were stained for flow cytometry and gated on live CD45^+ tumor-infiltrating leukocytes (FIG. 2).
Tumor-infiltrating cytotoxic T cells (Thy1^+/CD8^+) were quantitated by weighing the tumors before dissociation, allowing cells-per-gram of tumor to be calculated.
M-MDSCs were quantitated by weighing the tumors before dissociation, allowing cells-per-gram of tumor to be calculated.
The ratio in control treated mice (veh+iso) was 1:1, meaning one M-MDSC for every CD8 T cell. […] Treatment of Compound 1 alone yielded 10 CD8 T cells for every M-MDSC cell. Treatment with α-PD-1 […].

SMILES: C[C@H]1CN([C@@H]2CC[C@@](C(=O)N3COc4c(cc(C(F)(F)F)cc4C(F)(F)F)C3)(C3CC3)OC2)CC[C@@H]1c1cccc(C(=O)O)c1 [Compound 1]
- trough plasma levels [1]: at or above those required for full receptor coverage
- M-MDSCs in the CT26 tumor microenvironment (cells per gram of tumor) ([2]; by day 24): reduces the population of M-MDSCs
- ratio of CD8 T cells to M-MDSCs ([2]; calculated from cell counts of FIG. 10 and FIG. 11, control (veh+iso) 1:1): 10 CD8 T cells for every M-MDSC
